Earlier results in patent publication US20230104874A1, “HERBAL PREPARATION FOR PREVENTION AND TREATMENT OF HELICOBACTER PYLORI INFECTION” (HerbElixa DOO BEOGRAD- NOVI BEOGRAD, priority 2020, published 2023).

Key:
H. pylori = conditions: literature
Gram negative bacteria = conditions: Korona-Glowniak et al. 2020

Row | Structure (SMILES) | anti-H. pylori activity in vitro (H. pylori) | antibacterial activity against Gram negative bacteria (Gram negative bacteria)
1 | Cc1ccc(C(C)C)cc1O [carvacrol] | bactericidal activity | 
2 | Cc1ccc(C(C)C)cc1 [p-cymene] |  | no antibacterial activity
3 | Cc1ccc(C(C)C)c(O)c1 [thymol] | high bactericidal activity | 
4 | CC1=CCC(C(C)C)=CC1 [γ-terpinene] |  | no antibacterial activity
